{"source": "paper PMC9527314", "about": "“Structural insights into the binding of zoledronic acid with RANKL via computational simulations” (Frontiers in Molecular Biosciences, 2022)", "biological_target": "T1, human RANKL trimer (Homo sapiens, UniProt O14788)", "T1 construct": "gene TNFSF11; recombinant human RANKL trimer protein from ACROBiosystems; homotrimer; amine-coupled to CM5 chip", "T1 sequence (O14788 140-317 limits assumed)": "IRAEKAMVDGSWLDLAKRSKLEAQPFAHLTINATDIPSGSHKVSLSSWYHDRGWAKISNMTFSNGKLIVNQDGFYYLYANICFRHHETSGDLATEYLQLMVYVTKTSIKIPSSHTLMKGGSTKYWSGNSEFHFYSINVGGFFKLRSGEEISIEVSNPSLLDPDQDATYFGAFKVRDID", "test": "SPR (Biacore T200), RANKL immobilised on CM5 chip, steady-state fit", "type": "binding", "data": [{"molecule": "O=P(O)(O)C(O)(Cn1ccnc1)P(=O)(O)O", "note": "[Zoledronic acid]", "values": [{"measurement": "Kd", "value": 228, "unit": "µM"}]}]}
